# Where two headings read alike, the source gives them in different places. Starred links: 1 amine or outer side, 2 acyl side, 3 side chain; linkers in the order of their positions; H or OH if unused. Positions of bridges follow the written chain, without caps; N, C: chain ends. Residues, ends and D or L forms follow the SMILES beside them. *: point of attachment. C20 diacid = O=C(O)CCCCCCCCCCCCCCCCCCC(=O)*; C18 diacid = O=C(O)CCCCCCCCCCCCCCCCC(=O)*; γGlu = O=C(O)[C@H](CCC(=O)[*:2])N[*:1]
# How the values were obtained:
# [1] = system: food intake; experiment: Assay (I) efficacy testing on appetite (food intake), ad libitum fed rat model; type: in vivo, Sprague Dawley (SD) rats; conditions: 3 nmol/kg
# How it was run: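 Food consumption was logged per animal every hour up to 7 h and again at 24 h (occasionally 48 h) after a single 0.01–3 mg/kg dose, given sc, po or ip at dark-phase onset. Ad libitum fed SD rats, 200–250 g, kept on inverted light/dark cycle; vehicle group included, outliers removed by Grubbs test.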
# [2] = molecular target: T1, human amylin receptor (amylin 3(a) receptor: human calcitonin receptor + RAMP-3) (Homo sapiens, UniProt O60896+P30988); experiment: Assay (II)a functional CRE-luciferase assay, human amylin receptor; type: cell-based; conditions: Table 2; BHK amylin 3(a)-receptor/CRE-luc cells
# T1 construct: expressed in transfected cells; host or cells: BHK570
# T1 sequence (P30988 25-474): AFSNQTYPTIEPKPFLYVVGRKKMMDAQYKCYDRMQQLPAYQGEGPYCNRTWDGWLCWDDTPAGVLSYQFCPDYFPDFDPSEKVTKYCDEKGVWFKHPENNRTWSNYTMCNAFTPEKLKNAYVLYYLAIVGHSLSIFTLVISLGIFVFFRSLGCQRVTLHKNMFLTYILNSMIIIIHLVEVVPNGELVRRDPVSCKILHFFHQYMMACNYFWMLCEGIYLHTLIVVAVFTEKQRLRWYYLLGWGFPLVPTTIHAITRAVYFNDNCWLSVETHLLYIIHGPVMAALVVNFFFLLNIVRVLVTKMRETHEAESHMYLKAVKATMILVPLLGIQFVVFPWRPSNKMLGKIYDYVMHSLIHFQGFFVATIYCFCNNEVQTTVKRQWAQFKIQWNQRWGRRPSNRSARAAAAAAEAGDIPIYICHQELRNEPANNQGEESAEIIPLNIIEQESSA
# T1 sequence (O60896 24-148 partner): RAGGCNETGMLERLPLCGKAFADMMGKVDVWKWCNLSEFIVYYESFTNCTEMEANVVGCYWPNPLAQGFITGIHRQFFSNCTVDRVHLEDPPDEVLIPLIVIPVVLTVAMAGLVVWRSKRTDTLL
# [3] = molecular target: T2, human calcitonin receptor (Homo sapiens, UniProt P30988); experiment: Assay (II)a functional CRE-luciferase assay, human calcitonin receptor; type: cell-based; conditions: Table 7; human calcitonin (CTa) receptor
# T2 construct: expressed in transfected cells; host or cells: BHK570
# T2 sequence (P30988 25-474): T1 sequence (P30988 25-474)
# [4] = Assay (IV) determination of solubility; type: physicochemical
# How it was run: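 Solubility was profiled across pH 3.0–8.0 after 18 hours at room temperature: a ~500 nmol/ml aqueous polypeptide solution was diluted 1:1 into 100 mM glycylglycine or bistrispropane buffers. After centrifugation, HPLC gave the dissolved concentration.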
# [5] = Assay (IX) pK, determination of T½ in mini-pig; type: in vivo, Göttingen mini-pigs; conditions: male, Göttingen, iv, 2 nmol/kg; minipig; plasma terminal half-life
# [6] = bistrispropane buffer, pH 6, pH 6.0, read-out: Solubility pH 6.0
# [7] = bistrispropane buffer, pH 6.5, pH 6.5, read-out: Solubility pH 6.5
# [8] = bistrispropane buffer, pH 7, pH 7.0, 18 hours at room temperature, Table 3, read-out: Solubility pH 7.0
# [9] = bistrispropane buffer, pH 7, pH 7.0, Table 8, read-out: Solubility pH 7.0
# [10] = bistrispropane buffer, pH 7, pH 7.0, Table 9, read-out: Solubility pH 7.0
# [11] = bistrispropane buffer, pH 7, pH 7.0, read-out: Solubility pH 7.0
# [12] = bistrispropane buffer, pH 7.5, pH 7.5, Table 9, read-out: Solubility pH 7.5
# [13] = bistrispropane buffer, pH 7.5, pH 7.5, read-out: Solubility pH 7.5
# [14] = bistrispropane buffer, pH 8, pH 8.0, read-out: Solubility pH 8.0
# [15] = glycylglycine buffer, pH 3, pH 3.0, read-out: Solubility pH 3.0
# [16] = glycylglycine buffer, pH 4, pH 4.0, 18 hours at room temperature, Table 2, read-out: Solubility pH 4.0
# [17] = glycylglycine buffer, pH 4, pH 4.0, read-out: Solubility pH 4.0
# [18] = glycylglycine buffer, pH 5, pH 5.0, read-out: Solubility pH 5.0
EC50 [2] [nM],EC50 [3] [nM],"solubility at 18 h [4, 6] [µM]","solubility at 18 h [4, 7] [µM]","solubility at 18 h [4, 8] [µM]","solubility at 18 h [4, 9] [µM]","solubility at 18 h [4, 10] [µM]","solubility at 18 h [4, 11] [µM]","solubility at 18 h [4, 12] [µM]","solubility at 18 h [4, 13] [µM]","solubility at 18 h [4, 14] [µM]","solubility at 18 h [4, 15] [µM]","solubility at 18 h [4, 16] [µM]","solubility at 18 h [4, 17] [µM]","solubility at 18 h [4, 18] [µM]",half-life [5] [days],SMILES,Food intake reduction 0-24 h 3 nmol/kg (%) [1] [%],Food intake reduction 24-48 h 3 nmol/kg (%) [1] [%]
0.056,0.0605,> 200,> 200,> 200,> 200,> 200,> 200,> 200,> 200,> 200,> 200,> 200,> 200,> 200,2.46,"CC[C@H](C)[C@H](NC(=O)[C@@H]1CCCN1C(=O)CNC(=O)[C@H](Cc1ccccc1)NC(=O)[C@H](CC(N)=O)NC(=O)[C@H](CC(N)=O)NC(=O)[C@H](CO)NC(=O)[C@H](CO)NC(=O)[C@H](Cc1c[nH]cn1)NC(=O)[C@H](Cc1c[nH]cn1)NC(=O)[C@H](CC(C)C)NC(=O)[C@H](Cc1ccccc1)NC(=O)[C@H](CCC(=O)O)NC(=O)[C@H](C)NC(=O)[C@H](CC(C)C)NC(=O)[C@H](CCCNC(=N)N)NC(=O)[C@H](CCC(N)=O)NC(=O)[C@@H](NC(=O)[C@H](C)NC(=O)[C@@H]1CSSC[C@H](NC(=O)[C@H](CCCCN)NC(=O)CC[C@H](NC(=O)CCCCCCCCCCCCCCCCC(=O)O)C(=O)O)C(=O)N[C@@H](CC(N)=O)C(=O)N[C@@H]([C@@H](C)O)C(=O)N[C@@H](C)C(=O)N[C@@H]([C@@H](C)O)C(=O)N1)[C@@H](C)O)C(=O)N[C@@H](CC(C)C)C(=O)N1CCC[C@H]1C(=O)N1CCC[C@H]1C(=O)N[C@H](C(=O)N[C@@H](CC(N)=O)C(=O)N[C@H](C(=O)NCC(=O)N[C@@H](CO)C(=O)N[C@@H](Cc1c[nH]cn1)C(=O)N[C@H](C(=O)N[C@@H](Cc1ccc(O)cc1)C(N)=O)[C@@H](C)O)C(C)C)[C@@H](C)O [Example 59, N-alpha-[(S)-4-Carboxy-4-(17-carboxyheptadecanoylamino)butyryl]-[Glu14,His17,His35]-pramlintide] ({C18 diacid-γGlu}-KCNTATCATQRLAEFLHHSSNNFGPILPPTNVGSHTY-NH2; disulfide 2-7 (inferred))",59,27
0.043,0.055,> 200,> 200,> 200,> 200,> 200,> 200,> 200,> 200,> 200,> 200,> 200,> 200,> 200,4.46,"CC[C@H](C)[C@H](NC(=O)[C@@H]1CCCN1C(=O)CNC(=O)[C@H](Cc1ccccc1)NC(=O)[C@H](CC(N)=O)NC(=O)[C@H](CC(N)=O)NC(=O)[C@H](CO)NC(=O)[C@H](CO)NC(=O)[C@H](Cc1c[nH]cn1)NC(=O)[C@H](Cc1c[nH]cn1)NC(=O)[C@H](CC(C)C)NC(=O)[C@H](Cc1ccccc1)NC(=O)[C@H](CCC(=O)O)NC(=O)[C@H](C)NC(=O)[C@H](CC(C)C)NC(=O)[C@H](CCCNC(=N)N)NC(=O)[C@H](CCC(N)=O)NC(=O)[C@@H](NC(=O)[C@H](C)NC(=O)[C@@H]1CSSC[C@H](NC(=O)[C@H](CCCNC(=N)N)NC(=O)CC[C@H](NC(=O)CCCCCCCCCCCCCCCCCCC(=O)O)C(=O)O)C(=O)N[C@@H](CC(N)=O)C(=O)N[C@@H]([C@@H](C)O)C(=O)N[C@@H](C)C(=O)N[C@@H]([C@@H](C)O)C(=O)N1)[C@@H](C)O)C(=O)N[C@@H](CC(C)C)C(=O)N1CCC[C@H]1C(=O)N1CCC[C@H]1C(=O)N[C@H](C(=O)N[C@@H](CC(N)=O)C(=O)N[C@H](C(=O)NCC(=O)N[C@@H](CO)C(=O)N[C@@H](CC(N)=O)C(=O)N[C@H](C(=O)N1CCC[C@H]1C(N)=O)[C@@H](C)O)C(C)C)[C@@H](C)O [Example 96, N-alpha-[(S)-4-Carboxy-4-(19-carboxynonadecanoylamino)butyryl]-[Arg1,Glu14,His17,Pro37]-pramlintide] ({C20 diacid-γGlu}-RCNTATCATQRLAEFLHHSSNNFGPILPPTNVGSNTP-NH2; disulfide 2-7 (inferred))",69,89
0.121,0.107,> 200,174,160,,,160,,> 200,> 200,> 200,> 200,> 200,> 200,3.75,"CC[C@H](C)[C@H](NC(=O)[C@@H]1CCCN1C(=O)CNC(=O)[C@H](Cc1ccccc1)NC(=O)[C@H](CC(N)=O)NC(=O)[C@H](CC(N)=O)NC(=O)[C@H](CO)NC(=O)[C@H](CO)NC(=O)[C@H](Cc1c[nH]cn1)NC(=O)[C@H](Cc1c[nH]cn1)NC(=O)[C@H](CC(C)C)NC(=O)[C@H](Cc1ccccc1)NC(=O)[C@H](CCC(=O)O)NC(=O)[C@H](C)NC(=O)[C@H](CC(C)C)NC(=O)[C@H](CCCNC(=N)N)NC(=O)[C@H](CCC(N)=O)NC(=O)[C@@H](NC(=O)[C@H](C)NC(=O)[C@@H]1CSSC[C@H](NC(=O)[C@H](CCCCN)NC(=O)CC[C@H](NC(=O)CCCCCCCCCCCCCCCCCCC(=O)O)C(=O)O)C(=O)N[C@@H](CC(N)=O)C(=O)N[C@@H]([C@@H](C)O)C(=O)N[C@@H](C)C(=O)N[C@@H]([C@@H](C)O)C(=O)N1)[C@@H](C)O)C(=O)N[C@@H](CC(C)C)C(=O)N1CCC[C@H]1C(=O)N1CCC[C@H]1C(=O)N[C@H](C(=O)N[C@@H](CC(N)=O)C(=O)N[C@H](C(=O)NCC(=O)N[C@@H](CO)C(=O)N[C@@H](CC(N)=O)C(=O)N[C@H](C(=O)N[C@@H](Cc1ccc(O)cc1)C(N)=O)[C@@H](C)O)C(C)C)[C@@H](C)O [Example 27, N-alpha-[(S)-4-Carboxy-4-(19-carboxynonadecanoylamino)butyryl]-[Glu14,His17]-pramlintide] ({C20 diacid-γGlu}-KCNTATCATQRLAEFLHHSSNNFGPILPPTNVGSNTY-NH2; disulfide 2-7 (inferred))",56,53

# — patent publication US8722849B2, “Polypeptides” (Novo Nordisk A/S, priority 2011, dated 2014)
